Experimental data published in ChEMBL document CHEMBL4043200, “Synthesis and biological evaluation of 8-aryl-2-morpholino-7-O-substituted benzo[e][1,3]oxazin-4-ones against DNA-PK, PI3K, PDE3A enzymes and platelet aggregation” (Bioorg Med Chem, 2017).

Legend:
[1] = target: DNA-dependent protein kinase catalytic subunit (Homo sapiens, UniProt P78527); test: Inhibition of human DNA-PK catalytic subunit at 10 uM using DNA and [EPPLSQEAFADLWKK] peptide substrate by HTRF assay
[2] = target: T1, cGMP-inhibited 3',5'-cyclic phosphodiesterase 3A (Homo sapiens, UniProt Q14432); test: Inhibition of human PDE3A by HTRF assay
T1 sequence (Q14432 whole entry, canonical isoform): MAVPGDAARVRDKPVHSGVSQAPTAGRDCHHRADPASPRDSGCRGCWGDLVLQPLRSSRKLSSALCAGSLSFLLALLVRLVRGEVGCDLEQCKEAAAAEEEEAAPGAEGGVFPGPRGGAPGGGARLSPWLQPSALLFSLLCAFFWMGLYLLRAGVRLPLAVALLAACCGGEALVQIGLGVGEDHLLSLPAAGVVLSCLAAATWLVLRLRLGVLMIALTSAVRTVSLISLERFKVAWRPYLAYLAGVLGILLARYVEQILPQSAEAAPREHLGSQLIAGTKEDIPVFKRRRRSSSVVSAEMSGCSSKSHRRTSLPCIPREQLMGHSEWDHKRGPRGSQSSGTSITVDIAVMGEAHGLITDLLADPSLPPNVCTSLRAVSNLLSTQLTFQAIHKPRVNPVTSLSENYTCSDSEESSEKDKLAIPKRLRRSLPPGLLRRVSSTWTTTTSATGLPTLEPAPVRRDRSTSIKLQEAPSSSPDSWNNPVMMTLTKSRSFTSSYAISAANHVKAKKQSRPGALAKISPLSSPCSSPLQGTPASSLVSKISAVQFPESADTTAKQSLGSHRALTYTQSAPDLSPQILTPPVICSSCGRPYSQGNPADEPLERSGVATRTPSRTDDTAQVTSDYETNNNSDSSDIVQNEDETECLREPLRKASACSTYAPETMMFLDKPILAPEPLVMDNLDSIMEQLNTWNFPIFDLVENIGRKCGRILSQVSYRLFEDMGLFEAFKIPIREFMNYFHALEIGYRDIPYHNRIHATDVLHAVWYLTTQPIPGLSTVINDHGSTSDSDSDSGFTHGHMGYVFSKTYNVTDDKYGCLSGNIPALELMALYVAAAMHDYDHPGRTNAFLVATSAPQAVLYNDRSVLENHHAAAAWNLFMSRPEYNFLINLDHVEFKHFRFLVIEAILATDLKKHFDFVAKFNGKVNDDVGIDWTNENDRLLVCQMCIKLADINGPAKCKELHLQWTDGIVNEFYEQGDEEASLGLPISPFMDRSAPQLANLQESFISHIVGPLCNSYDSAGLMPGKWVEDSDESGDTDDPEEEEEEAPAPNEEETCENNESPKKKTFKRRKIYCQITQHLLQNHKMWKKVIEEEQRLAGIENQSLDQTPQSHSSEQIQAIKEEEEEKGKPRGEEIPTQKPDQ

[3] = target: Phosphatidylinositol 4,5-bisphosphate 3-kinase catalytic subunit alpha isoform (Homo sapiens) (UniProt P42336); test: Inhibition of wild type PI3K-alpha (unknown origin) assessed as decrease in ATP consumption at 10 uM using phosphotidylinositol bisphosphate and ATP measured after 60 mins by Kinase-Glo reagent based luminescence assay
Phosphatidylinositol 4,5-bisphosphate 3-kinase catalytic subunit alpha isoform (Homo sapiens), sequence (P42336 whole entry, canonical isoform): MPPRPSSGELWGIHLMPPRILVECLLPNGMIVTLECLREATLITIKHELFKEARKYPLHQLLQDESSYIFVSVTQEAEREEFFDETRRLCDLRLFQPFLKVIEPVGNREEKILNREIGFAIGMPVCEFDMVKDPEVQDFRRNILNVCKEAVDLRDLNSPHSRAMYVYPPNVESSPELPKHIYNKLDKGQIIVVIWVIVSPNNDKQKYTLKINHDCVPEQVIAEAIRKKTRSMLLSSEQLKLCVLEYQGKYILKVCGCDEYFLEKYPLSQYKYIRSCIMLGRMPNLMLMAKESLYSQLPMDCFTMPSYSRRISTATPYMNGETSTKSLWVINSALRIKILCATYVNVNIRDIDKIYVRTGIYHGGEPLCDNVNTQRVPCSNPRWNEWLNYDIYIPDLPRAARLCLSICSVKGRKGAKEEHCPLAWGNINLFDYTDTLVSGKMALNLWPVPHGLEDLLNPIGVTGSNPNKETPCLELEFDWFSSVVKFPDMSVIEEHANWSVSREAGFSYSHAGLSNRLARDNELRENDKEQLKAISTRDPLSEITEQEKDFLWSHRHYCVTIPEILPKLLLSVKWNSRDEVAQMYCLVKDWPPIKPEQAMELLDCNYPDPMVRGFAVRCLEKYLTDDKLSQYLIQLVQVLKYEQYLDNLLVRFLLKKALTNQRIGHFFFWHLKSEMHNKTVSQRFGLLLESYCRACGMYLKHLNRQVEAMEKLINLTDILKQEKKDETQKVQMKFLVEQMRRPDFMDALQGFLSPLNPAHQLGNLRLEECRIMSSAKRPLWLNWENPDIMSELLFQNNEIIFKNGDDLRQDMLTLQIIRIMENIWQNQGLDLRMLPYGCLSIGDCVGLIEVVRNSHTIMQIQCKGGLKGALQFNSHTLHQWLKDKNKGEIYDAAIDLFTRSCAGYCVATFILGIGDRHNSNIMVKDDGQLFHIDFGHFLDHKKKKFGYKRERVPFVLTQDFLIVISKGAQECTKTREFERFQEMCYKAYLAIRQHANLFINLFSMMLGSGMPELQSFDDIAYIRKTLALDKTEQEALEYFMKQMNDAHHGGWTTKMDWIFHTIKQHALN

[4] = target: Phosphatidylinositol 4,5-bisphosphate 3-kinase catalytic subunit beta isoform (Homo sapiens) (UniProt P42338); test: Inhibition of wild type PI3K-beta (unknown origin) assessed as decrease in ATP consumption at 10 uM using phosphotidylinositol bisphosphate and ATP measured after 60 mins by Kinase-Glo reagent based luminescence assay
Phosphatidylinositol 4,5-bisphosphate 3-kinase catalytic subunit beta isoform (Homo sapiens), sequence (P42338 whole entry, looked up, canonical isoform): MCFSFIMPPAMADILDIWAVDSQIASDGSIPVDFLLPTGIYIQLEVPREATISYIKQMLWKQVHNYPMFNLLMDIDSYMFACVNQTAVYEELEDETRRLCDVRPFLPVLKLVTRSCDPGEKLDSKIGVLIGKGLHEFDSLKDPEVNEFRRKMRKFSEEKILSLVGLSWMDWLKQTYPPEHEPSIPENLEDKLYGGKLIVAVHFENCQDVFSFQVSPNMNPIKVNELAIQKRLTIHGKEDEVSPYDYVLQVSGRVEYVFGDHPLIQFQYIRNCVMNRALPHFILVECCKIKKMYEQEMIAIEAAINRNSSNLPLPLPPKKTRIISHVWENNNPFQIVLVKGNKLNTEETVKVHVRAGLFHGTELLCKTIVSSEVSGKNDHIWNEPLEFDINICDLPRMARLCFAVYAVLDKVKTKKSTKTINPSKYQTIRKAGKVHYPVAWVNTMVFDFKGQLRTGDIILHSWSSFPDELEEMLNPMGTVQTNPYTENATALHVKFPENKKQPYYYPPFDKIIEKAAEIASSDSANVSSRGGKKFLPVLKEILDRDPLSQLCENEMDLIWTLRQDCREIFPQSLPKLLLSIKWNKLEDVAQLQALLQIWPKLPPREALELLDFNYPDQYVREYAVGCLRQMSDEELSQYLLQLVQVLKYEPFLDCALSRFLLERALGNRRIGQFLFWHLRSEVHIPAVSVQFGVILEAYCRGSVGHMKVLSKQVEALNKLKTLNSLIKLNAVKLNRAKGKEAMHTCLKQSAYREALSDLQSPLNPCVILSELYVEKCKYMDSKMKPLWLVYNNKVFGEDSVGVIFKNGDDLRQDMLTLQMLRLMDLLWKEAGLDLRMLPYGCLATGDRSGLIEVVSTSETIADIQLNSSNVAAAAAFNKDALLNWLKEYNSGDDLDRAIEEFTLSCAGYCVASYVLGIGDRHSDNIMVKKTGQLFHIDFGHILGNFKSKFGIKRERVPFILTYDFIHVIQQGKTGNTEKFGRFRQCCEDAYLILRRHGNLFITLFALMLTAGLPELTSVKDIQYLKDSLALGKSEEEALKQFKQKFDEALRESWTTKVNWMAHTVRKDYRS

[5] = target: T1, cGMP-inhibited 3',5'-cyclic phosphodiesterase 3A; test: Inhibition of human PDE3A at 10 uM by HTRF assay
[6] = target: Phosphatidylinositol 4,5-bisphosphate 3-kinase catalytic subunit gamma isoform (Homo sapiens) (UniProt P48736); test: Inhibition of wild type PI3K-gamma (unknown origin) assessed as decrease in ATP consumption at 10 uM using phosphotidylinositol bisphosphate and ATP measured after 60 mins by Kinase-Glo reagent based luminescence assay
Phosphatidylinositol 4,5-bisphosphate 3-kinase catalytic subunit gamma isoform (Homo sapiens), sequence (P48736 whole entry, looked up, canonical isoform): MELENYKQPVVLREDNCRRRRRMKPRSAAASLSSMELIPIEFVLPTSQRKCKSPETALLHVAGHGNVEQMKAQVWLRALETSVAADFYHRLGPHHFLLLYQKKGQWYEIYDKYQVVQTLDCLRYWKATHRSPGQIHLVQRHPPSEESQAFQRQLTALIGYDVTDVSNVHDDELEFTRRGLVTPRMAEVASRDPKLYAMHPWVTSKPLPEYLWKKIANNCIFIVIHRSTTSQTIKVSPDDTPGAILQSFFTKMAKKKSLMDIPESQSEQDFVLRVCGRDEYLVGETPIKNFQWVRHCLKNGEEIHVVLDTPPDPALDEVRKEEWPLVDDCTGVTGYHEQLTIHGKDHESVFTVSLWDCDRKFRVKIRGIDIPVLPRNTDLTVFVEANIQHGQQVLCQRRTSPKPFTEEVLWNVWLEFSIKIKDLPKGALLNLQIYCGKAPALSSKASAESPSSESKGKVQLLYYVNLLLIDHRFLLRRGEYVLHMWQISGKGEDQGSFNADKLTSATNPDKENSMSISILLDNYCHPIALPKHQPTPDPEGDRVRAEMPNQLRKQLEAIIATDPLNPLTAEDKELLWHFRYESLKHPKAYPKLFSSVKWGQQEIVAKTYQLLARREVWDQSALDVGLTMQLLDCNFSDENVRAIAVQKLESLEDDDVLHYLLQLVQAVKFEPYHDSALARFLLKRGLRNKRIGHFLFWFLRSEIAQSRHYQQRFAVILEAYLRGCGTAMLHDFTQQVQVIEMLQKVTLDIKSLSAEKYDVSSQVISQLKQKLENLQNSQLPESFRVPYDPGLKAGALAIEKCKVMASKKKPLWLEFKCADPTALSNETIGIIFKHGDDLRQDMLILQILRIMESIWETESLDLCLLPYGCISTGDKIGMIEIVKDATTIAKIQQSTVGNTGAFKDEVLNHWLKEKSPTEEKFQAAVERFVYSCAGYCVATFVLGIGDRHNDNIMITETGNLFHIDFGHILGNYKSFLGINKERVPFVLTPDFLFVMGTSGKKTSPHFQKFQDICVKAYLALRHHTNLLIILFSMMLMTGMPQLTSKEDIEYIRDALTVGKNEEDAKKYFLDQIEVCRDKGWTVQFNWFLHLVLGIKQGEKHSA

[7] = target: T2, Phosphatidylinositol 4,5-bisphosphate 3-kinase catalytic subunit delta isoform (Homo sapiens) (UniProt O00329); test: Inhibition of wild type PI3K-delta (unknown origin) assessed as decrease in ATP consumption at 10 uM using phosphotidylinositol bisphosphate and ATP measured after 60 mins by Kinase-Glo reagent based luminescence assay
T2 sequence (whole entry): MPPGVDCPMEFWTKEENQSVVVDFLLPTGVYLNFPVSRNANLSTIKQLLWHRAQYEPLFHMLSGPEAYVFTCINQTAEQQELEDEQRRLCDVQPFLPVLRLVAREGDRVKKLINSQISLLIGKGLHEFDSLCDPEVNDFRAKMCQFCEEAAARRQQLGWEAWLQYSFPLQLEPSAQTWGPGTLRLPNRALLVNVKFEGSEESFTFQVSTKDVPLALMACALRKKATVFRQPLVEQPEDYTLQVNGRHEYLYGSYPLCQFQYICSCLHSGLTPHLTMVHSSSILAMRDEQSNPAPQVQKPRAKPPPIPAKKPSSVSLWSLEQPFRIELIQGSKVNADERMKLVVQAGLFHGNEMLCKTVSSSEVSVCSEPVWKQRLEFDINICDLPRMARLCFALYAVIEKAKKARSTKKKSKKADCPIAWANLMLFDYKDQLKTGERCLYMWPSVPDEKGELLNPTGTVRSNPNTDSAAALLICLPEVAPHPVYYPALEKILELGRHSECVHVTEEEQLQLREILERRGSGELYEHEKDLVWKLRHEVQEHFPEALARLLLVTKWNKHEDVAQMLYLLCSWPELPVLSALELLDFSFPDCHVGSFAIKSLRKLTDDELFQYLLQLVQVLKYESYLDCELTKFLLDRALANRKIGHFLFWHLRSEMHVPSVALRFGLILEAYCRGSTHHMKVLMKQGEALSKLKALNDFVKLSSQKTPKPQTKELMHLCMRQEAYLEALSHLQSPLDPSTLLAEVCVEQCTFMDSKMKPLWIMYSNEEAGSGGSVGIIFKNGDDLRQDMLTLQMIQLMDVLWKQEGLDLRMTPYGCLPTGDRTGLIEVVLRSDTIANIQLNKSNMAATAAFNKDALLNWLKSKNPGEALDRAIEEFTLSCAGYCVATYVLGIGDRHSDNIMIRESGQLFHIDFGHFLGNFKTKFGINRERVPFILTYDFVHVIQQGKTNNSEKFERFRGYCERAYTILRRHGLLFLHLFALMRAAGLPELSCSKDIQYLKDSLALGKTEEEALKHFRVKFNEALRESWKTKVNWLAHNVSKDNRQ

Platelet = test: Inhibition of platelet aggregation in human platelet-rich plasma pre-incubated for 5 mins before ADP stimulation for 10 mins; assay type: functional, cell-based
[8] = target: T3, Phosphatidylinositol 4,5-bisphosphate 3-kinase catalytic subunit delta isoform (Homo sapiens, UniProt O00329); test: Inhibition of wild type PI3K-delta (unknown origin) assessed as decrease in ATP consumption using phosphotidylinositol bisphosphate and ATP measured after 60 mins by Kinase-Glo reagent based luminescence assay
T3 sequence (O00329 whole entry): T2 sequence (whole entry)

Compound	inhibition [1] [%]	IC50 [2] [µM]	inhibition [3] [%]	inhibition [4] [%]	inhibition [5] [%]	inhibition [6] [%]	inhibition [7] [%]	IC50 (Platelet) [µM]	IC50 [8] [µM]
O=c1nc(N2CCOCC2)oc2c(-c3ccsc3)c(OCc3ccccn3)ccc12	39.7	3.05	-8.1	-3	88.8	4.4	18		
CC(C)Cn1c(=O)n(C)c(=O)c2[nH]cnc21 [ISOBUTYLMETHYLXANTHINE]		7							
O=c1nc(N2CCOCC2)oc2c(-c3ccccc3)c(OCc3cccnc3)ccc12	18		57.9	64.4	50.4	25.7	85.5	80	7.2
CN1CCN(CCOc2ccc3c(=O)nc(N4CCOCC4)oc3c2-c2ccccc2)CC1	9.8		24	31.8	11.4	4.3	53.4	10	
O=c1nc(N2CCOCC2)oc2c(-c3cccs3)c(OCc3ccccn3)ccc12	40.1	2.95	-0.6	4.1	74.5	0.1	21.8		
O=c1nc(N2CCOCC2)oc2c(-c3cc4ccccc4s3)c(OCc3ccccn3)ccc12	47.2	3.01			77.9	-1	24.6		
COc1ccc(-c2c(OCCBr)ccc3c(=O)nc(N4CCOCC4)oc23)cc1	44.4		56.3	39.7	28	-8.6	88.8		2.7
O=c1nc(N2CCOCC2)oc2c(-c3ccccc3)c(OCc3ccccn3)ccc12	25.7	2.75	59.2	66.4	71.3	38.1	88.9		4
O=c1nc(N2CCOCC2)oc2c(-c3ccccc3)c(OCc3ccncc3)ccc12	15.1		46.1	68.1	60.1	8.2	80.8		5.8
